Laboratory results: ChEMBL document CHEMBL1125723 (J Med Chem, 1991)

Columns and labels:
[1] = Ability to inhibit WI-L2 […] leukemia tumor cell growth in culture after 48 hr of its exposure.; format: functional, cell-based; conditions: Homo sapiens, WIL2, 48 h
Dihydrofolate reductase = target: T1, Dihydrofolate reductase (Homo sapiens, UniProt P00374)
T1 sequence (P00374 whole entry): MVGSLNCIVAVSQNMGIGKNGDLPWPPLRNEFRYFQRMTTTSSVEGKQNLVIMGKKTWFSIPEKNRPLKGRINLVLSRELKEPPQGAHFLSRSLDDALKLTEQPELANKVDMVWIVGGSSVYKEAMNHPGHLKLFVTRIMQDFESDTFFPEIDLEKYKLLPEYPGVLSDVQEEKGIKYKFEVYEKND
Description: Ability to inhibit purified Dihydrofolate reductase from human leukemic lymphoblasts was determined spectrophotometrically at 340 nM.

L1210 [2] = test: Ability to inhibit L1210 murine leukemia tumor cell growth in culture after 48 hr of its exposure.; format: functional, cell-based; conditions: Mus musculus, L1210, 48 h
L1210 [3] = test: Ability to inhibit MTX-resistant L1210/R81 tumor cell growth was determined.; conditions: Mus musculus

C=C(CC(NC(=O)c1ccc(N(C)Cc2cnc3nc(N)nc(N)c3n2)cc1)C(=O)O)C(=O)O (stereo unspecified)
IC50 [1]: 48 nM | IC50 (Dihydrofolate reductase): 44 nM | IC50 (L1210 [2]): 870 nM

CN(Cc1cnc2nc(N)nc(N)c2n1)c1ccc(C(=O)NC(CC(C#N)C(=O)O)C(=O)O)cc1 (stereo unspecified)
IC50 (Dihydrofolate reductase): 57 nM | IC50 (L1210 [2]): 18 nM

C=C(CC(NC(=O)c1ccc(NCc2cnc3nc(N)nc(N)c3n2)cc1)C(=O)O)C(=O)O (stereo unspecified)
IC50 [1]: 20 nM | IC50 (Dihydrofolate reductase): 88 nM | IC50 (L1210 [2]): 29 nM

Nc1nc(N)c2nc(CNc3ccc(C(=O)N[C@@H](CCC(=O)O)C(=O)O)cc3)cnc2n1 [AMINOPTERIN]
IC50 [1]: 7.1 nM

CN(Cc1cnc2nc(N)nc(N)c2n1)c1ccc(C(=O)N[C@@H](CCC(=O)O)C(=O)O)cc1 [METHOTREXATE]
IC50 [1]: 13 nM | IC50 (L1210 [3]): 200000 nM
